Assay type in all cases: biochemical, Prescottella equi
Common to all, as to details: 50 mM HEPES pH 7.5, 25 °C (Methods: 2.5 mM HEPES)

Assay [1] concerns ReNHase (Fe-type nitrile hydratase). As to the kind of experiment: spectrophotometric, […],4-dihydroxybenzamide formation at […] nm.
The test system is the same in assay [2]. In words: spectrophotometric, 3-hydroxybenzamide formation at […] nm.
Assay [3] has the same test system. In words: spectrophotometric, acetamide formation at […] nm.
The test system is the same in assay [4]. As to the kind of experiment: spectrophotometric, acrylamide formation at […] nm.
The test system is the same in assay [5]. As to the kind of experiment: spectrophotometric, benzamide formation at […] nm.

Consider `N#Cc1ccc(O)c(O)c1` [3,4-dihydroxybenzonitrile], for which the Km in assay [1] came to 168 ± 21 µM. As for `N#Cc1cccc(O)c1` [3-hydroxybenzonitrile], the Km in assay [2] was 77 ± 17 µM.

Turning to `CC#N` [acetonitrile], in assay [3], the “Km (μM)” value is given as 25 000 ± 2000 μM. Turning to `C=CC#N` [acrylonitrile], the “Km (μM)” value in assay [4] is listed as 25 000 ± 11 000 μM. As for `N#Cc1ccccc1` [benzonitrile], in assay [5], the Km was found to be 13.2 ± 1.4 µM.

As a reminder, the Km is the concentration of substrate that gives half-maximal velocity.

Source of the values: publication PMC8721871 (Biochemistry, 2021).
